Literature values in patent US11192954B2, “Compounds and methods for the treatment of TROP2 positive diseases” (BIO-THERA SOLUTIONS, LTD., priority 2017, dated 2021).

Assays:
[1] = test system: multiple cancer cell lines; details: cited from earlier work
[2] = test system: Lewis lung carcinoma and B-16 melanocarcinoma solid murine tumor models; details: mouse, in vivo; cited from earlier work

SMILES	Activity against multiple cancer cell lines [1]	Activity against murine tumors [2]
COc1cc2cc(c1Cl)N(C)C(=O)C[C@H](OC(=O)C(C)C)[C@]1(C)O[C@@H]1[C@H](C)[C@@H]1C[C@@](O)(NC(=O)O1)[C@H](OC)/C=C/C=C(\C)C2 [Ansamitocin P3]	effective	–
COc1cc2cc(c1Cl)N(C)C(=O)C[C@H](OC(=O)[C@H](C)N(C)C(C)=O)[C@]1(C)O[C@H]1[C@H](C)[C@@H]1C[C@@](O)(NC(=O)O1)[C@H](OC)/C=C/C=C(\C)C2 [Maytansine]	–	significant inhibitory activity
